Read-outs that look alike come from different tables or passages of the source.
Experiments:
CRBN-DDB1 = CRBN-DDB1 (Homo sapiens (Human), UniProt Q96SW2); assay: Compound binding to CRBN by HTRF assay
Description: Compound activity was monitored in a Homogenous Time-Resolved Fluorescence (HTRF) assay using 1-[5-({2-[2-(2-{[2-(2,6-dioxopiperidin-3-yl)-1,3-dioxo-2,3-dihydro-1H-isoindol-4-yl]oxy}acetamido)ethoxy]ethyl}carbamoyl)pentyl]-3,3-dimethyl-2-[(1E,3E)-5-[(2E)-1,3,3-trimethyl-5-sulfo-2,3-dihydro-1H-indol-2-ylidene]penta-1,3-dien-1-yl]-3H-indol-1-ium-5-sulfonate as a fluorescent probe. Biochemical assays were conducted in Greiner white 384 well HiBase plates (Cat. No 784075-25) in 20 μL total volume. A one pot detection solution of CRBN-DDB1 (2.5 nM), Anti-His Terbium Cryptate Gold (1×, PerkinElmer Cat. #: 61HI2TLB), and Cy5-Thalidomide (100 nM, Tenova Cat.: T52461) was prepared in 20 mM HEPES, 20 mM NaCl, 0.2 mM TCEP, 0.2 mM EDTA, and 0.005% Tween20 was dispensed to each assay plate. Compounds were stored in dry, ambient temperatures at 10 mM. An 11-point, 1:3 dilution series was prepared from 10 mM stock concentrations in Echo-compatible LDV plates. 10 nL of each compound dilution series was dispensed into assays wells using an Echo 650 (Labcyte Inc. USA). 20 nL of 10 mM Lenalidomide was transferred into the active-control wells for the assay and 20 nL of DMSO was transferred into the neutral-control wells. The assay was then allowed to incubate for 30 min at ambient temperature after transferring compound. Plate measurements were taken on a Pherastar FSX (BMG Labtech, Germany) using the HTRF Red filter (Ex. 337 nm, em1: 620 nm, em2: 665 nm) (Flashes: 50, Integration time: 60-400 us, Z-height: 10 mm, Ratio-multiplier: 10,000). The HTRF signal was then subsequently normalized to the neutral and active controls. Analysis and EC50 values were derived using KNIME analytics (KNIME Zurich) transformation and fitting within Collaborative Drug Discovery (Collaborative Drug Discovery USA). Ki was derived from the geometric mean of the EC50 values using the Cheng-Prustoff transformation.

NEK7 = NEK7 (Homo sapiens (Human), UniProt Q8TDX7+Q96SW2); assay: NEK7 NanoBiT degradation assay in Cal51 NEK7 NanoBiT cell line; format: cell-based; conditions: Cal51 NEK7 NanoBiT cells, 24 hours; for Dmax: CAL-51
NEK7, sequence (Q8TDX7 whole entry): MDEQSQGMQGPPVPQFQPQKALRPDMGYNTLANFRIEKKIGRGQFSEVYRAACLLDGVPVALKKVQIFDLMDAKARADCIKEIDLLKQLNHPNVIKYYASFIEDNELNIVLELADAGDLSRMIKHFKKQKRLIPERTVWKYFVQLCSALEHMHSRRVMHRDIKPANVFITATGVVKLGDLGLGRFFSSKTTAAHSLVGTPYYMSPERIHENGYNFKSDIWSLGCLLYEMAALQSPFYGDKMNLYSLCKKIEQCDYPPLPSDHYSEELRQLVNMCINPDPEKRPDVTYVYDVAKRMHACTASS
NEK7, sequence (Q96SW2 whole entry): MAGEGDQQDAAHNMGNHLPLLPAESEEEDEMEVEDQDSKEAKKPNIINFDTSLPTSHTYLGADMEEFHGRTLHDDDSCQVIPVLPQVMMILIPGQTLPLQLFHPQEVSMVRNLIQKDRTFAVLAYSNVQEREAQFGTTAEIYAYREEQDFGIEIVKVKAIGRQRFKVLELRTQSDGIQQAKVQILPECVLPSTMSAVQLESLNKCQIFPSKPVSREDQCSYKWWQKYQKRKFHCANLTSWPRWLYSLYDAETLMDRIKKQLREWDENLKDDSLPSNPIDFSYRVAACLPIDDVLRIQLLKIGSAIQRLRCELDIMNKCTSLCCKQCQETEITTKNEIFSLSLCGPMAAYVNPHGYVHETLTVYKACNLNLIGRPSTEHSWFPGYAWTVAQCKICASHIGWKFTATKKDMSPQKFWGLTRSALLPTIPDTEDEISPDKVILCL
NEK7, sequence (Q16531 2-1140 partner): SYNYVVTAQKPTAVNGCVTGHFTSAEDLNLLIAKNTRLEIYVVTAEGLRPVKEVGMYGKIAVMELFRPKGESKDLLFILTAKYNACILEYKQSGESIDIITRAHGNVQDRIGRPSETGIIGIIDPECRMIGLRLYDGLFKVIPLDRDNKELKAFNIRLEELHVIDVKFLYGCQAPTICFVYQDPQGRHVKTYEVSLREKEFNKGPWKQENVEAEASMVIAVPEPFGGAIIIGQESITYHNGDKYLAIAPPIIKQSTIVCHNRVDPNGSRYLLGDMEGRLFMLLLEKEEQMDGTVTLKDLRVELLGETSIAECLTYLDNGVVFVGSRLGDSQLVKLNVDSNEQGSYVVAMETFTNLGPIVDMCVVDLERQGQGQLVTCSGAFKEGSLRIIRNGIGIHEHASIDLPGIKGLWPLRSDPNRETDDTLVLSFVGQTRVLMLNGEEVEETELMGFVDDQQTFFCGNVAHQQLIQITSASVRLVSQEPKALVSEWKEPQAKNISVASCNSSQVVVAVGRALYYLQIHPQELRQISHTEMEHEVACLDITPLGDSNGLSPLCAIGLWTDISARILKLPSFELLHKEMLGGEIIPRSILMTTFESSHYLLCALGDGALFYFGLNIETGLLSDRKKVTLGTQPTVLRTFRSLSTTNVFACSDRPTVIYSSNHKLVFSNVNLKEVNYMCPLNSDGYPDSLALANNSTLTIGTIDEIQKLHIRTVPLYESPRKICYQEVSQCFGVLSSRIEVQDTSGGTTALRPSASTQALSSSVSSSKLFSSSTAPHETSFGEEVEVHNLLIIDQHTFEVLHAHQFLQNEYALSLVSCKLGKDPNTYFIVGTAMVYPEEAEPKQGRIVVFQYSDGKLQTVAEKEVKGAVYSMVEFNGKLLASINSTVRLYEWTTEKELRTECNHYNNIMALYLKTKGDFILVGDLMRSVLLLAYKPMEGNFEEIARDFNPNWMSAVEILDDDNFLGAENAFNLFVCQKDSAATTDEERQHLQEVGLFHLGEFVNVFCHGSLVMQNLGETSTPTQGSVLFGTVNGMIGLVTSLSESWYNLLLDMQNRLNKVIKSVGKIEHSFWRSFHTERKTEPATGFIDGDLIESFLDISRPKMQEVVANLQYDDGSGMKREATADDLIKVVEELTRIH
Description: Cal51 NEK7 NanoBiT cell line was generated via CRISPR Knock-In of the HiBiT tag in NEK7 gene and stable infection with a lentivirus carrying LgBiT protein. The cell line was generated in house. For the experiment, cells were plated in 384-well white flat bottom plates (Corning, 3570BC) at 2500 cells per well using Multiflo (BioTek/Agilent) and in 25 μl volume in DMEM experimental medium: DMEM (DMEM, high glucose, HEPES, no phenol red (ThermoFisher Scientific, 21063029) supplemented with 10% FBS (Corning, 35-075-CV), 1% Penicillin/Streptomycin ((ThermoFisher Scientific, 15140-122), and 1% Endurazine (Nano-Glo Endurazine Live Cell Substrate (Promega, N2571)). Cells were incubated for 16 hours at 37° C., 5% CO2 before compound addition. For dose response determination, 2.5 nL of a compound at different concentrations (stock compound concentration range: 10 mM to 0.5 μM, final concentration range inside cell plate: 1 μM to 0.05 nM) were dispensed into the plate using an Echo® 650 liquid handling device (Backman Coulter/Labcyte). Cells were incubated at 37° C., 5% CO2 for 24 hours and then signal was read on a Pherastar FSX using “LUM plus” optic module with 4095 gain and measurement interval time 0.2 seconds.
Analysis was performed in Genedata Screener (Genedata, Basel, CH). Luminescence response (R) was calculated by the formula: response=100*(S−N)/(P−N) where S is the signal of the well, N and P the mean negative and positive control values respectively of the same plate. The luminescence response was then fitted in Genedata using a 4-parameter antagonist logistic fit (hill slope unconstrained, EC50>0, top/bottom unconstrained).

[1] = NEK7 degradation, read-out: NanoBiT Dmax
[2] = NEK7 degradation, read-out: NanoBiT DC50

CRBN-DDB1, sequence (Q96SW2 whole entry): as the sequence (Q96SW2 whole entry) above
CRBN-DDB1, sequence (Q16531 whole entry partner): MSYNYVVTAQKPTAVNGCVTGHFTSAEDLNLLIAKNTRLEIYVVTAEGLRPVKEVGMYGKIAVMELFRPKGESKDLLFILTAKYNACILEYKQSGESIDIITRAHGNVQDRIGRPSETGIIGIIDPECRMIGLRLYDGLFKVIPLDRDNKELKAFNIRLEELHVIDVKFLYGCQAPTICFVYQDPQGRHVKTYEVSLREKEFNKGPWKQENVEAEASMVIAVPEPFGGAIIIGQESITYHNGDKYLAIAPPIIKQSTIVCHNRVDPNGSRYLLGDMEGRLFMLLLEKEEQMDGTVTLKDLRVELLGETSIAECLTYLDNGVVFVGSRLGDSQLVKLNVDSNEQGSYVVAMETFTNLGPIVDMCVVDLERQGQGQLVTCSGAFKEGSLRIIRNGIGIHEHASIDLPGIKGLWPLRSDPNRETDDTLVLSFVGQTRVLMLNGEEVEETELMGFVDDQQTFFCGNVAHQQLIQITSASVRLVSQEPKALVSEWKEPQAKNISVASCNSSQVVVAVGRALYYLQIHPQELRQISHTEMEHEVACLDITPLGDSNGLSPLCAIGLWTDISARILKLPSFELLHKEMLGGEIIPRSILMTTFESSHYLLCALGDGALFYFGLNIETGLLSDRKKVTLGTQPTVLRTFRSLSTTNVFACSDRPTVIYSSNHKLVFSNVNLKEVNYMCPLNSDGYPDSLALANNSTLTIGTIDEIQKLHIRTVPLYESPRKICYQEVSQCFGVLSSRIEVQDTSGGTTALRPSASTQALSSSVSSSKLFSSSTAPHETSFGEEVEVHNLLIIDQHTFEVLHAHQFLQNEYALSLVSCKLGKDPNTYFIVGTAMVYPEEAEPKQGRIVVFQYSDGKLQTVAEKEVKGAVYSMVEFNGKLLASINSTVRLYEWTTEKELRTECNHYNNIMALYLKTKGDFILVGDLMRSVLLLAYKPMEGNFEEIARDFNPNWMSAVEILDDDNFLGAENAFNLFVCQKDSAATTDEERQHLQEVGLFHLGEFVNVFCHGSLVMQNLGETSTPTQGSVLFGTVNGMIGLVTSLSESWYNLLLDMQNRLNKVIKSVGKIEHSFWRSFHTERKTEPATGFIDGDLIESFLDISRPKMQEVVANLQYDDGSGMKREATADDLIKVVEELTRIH

SMILES	EC50 (CRBN-DDB1) [nM]	EC50 (CRBN-DDB1; HTRF class, Cereblon binding) [nM]	Dmax (NEK7; read-out: NEK7 NanoBiT Dmax) [%]	Dmax (NEK7; [1]) [%]	DC50 (NEK7; read-out: NEK7 NanoBiT DC50) [nM]	DC50 (NEK7; [2]) [nM]
Cc1cnc(C(C)(C)C(=O)NCc2cc(Cl)c([C@@H]3CCC(=O)NC3=O)c(Cl)c2)nc1 (single isomer, unassigned) [Compound 154]	180	100 to 1000	89	> 75	4	≤ 100
CC(C)(C(=O)NCc1cc(Cl)c([C@@H]2CCC(=O)NC2=O)c(Cl)c1)c1ncccn1 (single isomer, unassigned) [Compound 179]	4170	> 1000	59	50 to 75	578	100 to 1000
Cc1nnc(C(C)(C)C(=O)NCc2cc(Cl)c([C@@H]3CCC(=O)NC3=O)c(Cl)c2)o1 (single isomer, unassigned) [Compound 224]	90	≤ 100	77	> 75	32	≤ 100
Cc1cnc(C(C)(C)C(=O)NCc2cc(Cl)c([C@@]3(F)CCC(=O)NC3=O)c(Cl)c2)nc1 (single isomer, unassigned) [Compound 244]	220	100 to 1000	19	≤ 50	1000	> 1000
CC(C)(C(=O)NCc1cc(Cl)c([C@]2(F)CCC(=O)NC2=O)c(Cl)c1)c1ccccc1 (single isomer, unassigned) [Compound 273]	250	100 to 1000	70	50 to 75	136	100 to 1000
CC(C)(C(=O)NCc1cc(Cl)c(C2CCC(=O)NC2=O)c(Cl)c1)c1ncc(C2CC2)cn1 (stereo not drawn) [Compound 1, 2-(5-cyclopropylpyrimidin-2-yl)-N-(3,5-dichloro-4-(2,6-dioxopiperidin-3-yl)benzyl)-2-methylpropan-amide]	150	100 to 1000	89	> 75	9	≤ 100

Further lines, results first:

EC50 (CRBN-DDB1) [nM]	EC50 (CRBN-DDB1; HTRF class, Cereblon binding) [nM]	Dmax (NEK7; read-out: NEK7 NanoBiT Dmax) [%]	Dmax (NEK7; [1]) [%]	DC50 (NEK7; read-out: NEK7 NanoBiT DC50) [nM]	DC50 (NEK7; [2]) [nM]	SMILES
240	100 to 1000	95	> 75	2	≤ 100	CC(C)(C(=O)NCc1cc(Cl)c([C@@H]2CCC(=O)NC2=O)c(Cl)c1)c1ncc(C#N)cn1 (single isomer, unassigned) [Compound 152]
≥ 10000	> 1000	90	> 75	53	≤ 100	CC(C)(C(=O)NCc1cc(Cl)c([C@H]2CCC(=O)NC2=O)c(Cl)c1)c1ncc(C#N)cn1 (single isomer, unassigned) [Compound 153]
≥ 10000	> 1000	75	50 to 75	186	100 to 1000	Cc1cnc(C(C)(C)C(=O)NCc2cc(Cl)c([C@H]3CCC(=O)NC3=O)c(Cl)c2)nc1 (single isomer, unassigned) [Compound 155]
120	100 to 1000	81	> 75	16	≤ 100	CC(C)(C(=O)NCc1cc(Cl)c([C@H]2CCC(=O)NC2=O)c(Cl)c1)c1ncccn1 (single isomer, unassigned) [Compound 180]
6560	> 1000	49	≤ 50	1000	> 1000	Cc1nnc(C(C)(C)C(=O)NCc2cc(Cl)c([C@H]3CCC(=O)NC3=O)c(Cl)c2)o1 (single isomer, unassigned) [Compound 225]
≥ 10000	> 1000	9	≤ 50	1000	> 1000	Cc1cnc(C(C)(C)C(=O)NCc2cc(Cl)c([C@]3(F)CCC(=O)NC3=O)c(Cl)c2)nc1 (single isomer, unassigned) [Compound 243]
≥ 10000	> 1000	3	≤ 50	1000	> 1000	CC(C)(C(=O)NCc1cc(Cl)c([C@@]2(F)CCC(=O)NC2=O)c(Cl)c1)c1ccccc1 (single isomer, unassigned) [Compound 274]

From patent US20250243180A1, “TARGETED PROTEIN DEGRADATION” (Monte Rosa Therapeutics AG, priority 2023, published 2025)
